Measurements from patent US12304899B2, “Factor XI activation inhibitors” (Merck Sharp & Dohme LLC, priority 2019, dated 2025).

target: T1, Human coagulation factor (F)XI (Homo sapiens, UniProt P03951); test: Inhibition of FXIIa mediated activation of FXI (activation of human Factor XI to XIa by human Factor α-XIIa); type: biochemical; settings: human FXI pre-incubated with compound 30 min at 22° C., activation by human FXIIa 60 min, z-GPR-AFC substrate fluorescence, 4 parameter logistic fit; read-out: Inhibition of FXIIa meditated activation of FXI
T1 construct: purchased Haematologic Technologies Inc. (FXI); Enzyme Research Laboratories (FXIIa) HCXI-150 (FXI); HFXIIa (FXIIa)
T1 sequence (P03951 19-625): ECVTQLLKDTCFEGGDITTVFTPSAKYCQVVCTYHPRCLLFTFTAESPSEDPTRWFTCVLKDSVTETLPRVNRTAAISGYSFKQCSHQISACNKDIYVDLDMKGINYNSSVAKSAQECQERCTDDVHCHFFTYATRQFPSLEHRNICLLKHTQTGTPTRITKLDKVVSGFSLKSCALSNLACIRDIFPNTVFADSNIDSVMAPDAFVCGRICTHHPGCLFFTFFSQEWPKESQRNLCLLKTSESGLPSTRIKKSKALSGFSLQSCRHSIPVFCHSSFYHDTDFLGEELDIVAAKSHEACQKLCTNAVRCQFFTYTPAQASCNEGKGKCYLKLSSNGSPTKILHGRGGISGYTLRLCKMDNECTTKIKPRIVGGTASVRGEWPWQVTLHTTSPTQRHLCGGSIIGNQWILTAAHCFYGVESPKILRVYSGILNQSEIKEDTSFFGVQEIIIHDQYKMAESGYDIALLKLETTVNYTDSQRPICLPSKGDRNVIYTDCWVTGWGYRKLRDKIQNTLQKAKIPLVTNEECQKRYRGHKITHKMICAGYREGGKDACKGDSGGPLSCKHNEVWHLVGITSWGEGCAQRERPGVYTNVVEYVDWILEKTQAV
Procedure: Inhibition of FXIIa Mediated Activation of FXI
Activation of Human Factor XI to XIa by Human Factor α-XIIa
The assay was performed in 50 mM HEPES, 150 mM NaCl, 5 mM CaCl2, 0.1% PEG-8000, pH 7.4 buffer in black, flat-bottom, polystyrene microplates (Corning, Cat #3573). Serial dilutions (10-point, 3.333-fold) of the test compounds delivered as 10 mM DMSO stocks were prepared in the Labcyte Echo-qualified PP 384 well microplates (Labcyte, Cat #P-05525). Human coagulation factor (F)XI (Haematologic Technologies Inc., Cat #HCXI-150, concentration 46 nM, 19.5 uL) was pre-incubated with 0.5 uL of the test compounds for 30 min at 22° C. The activation was initiated by addition of 10 uL of human coagulation factor (F)XIIa (Enzyme Research Laboratories, Cat #HFXIIa, concentration 30 nM) and the reaction proceeded for 60 min at 22° C., after which it was quenched by addition of a selective inhibitor of FXIIa (Compound 54 in International Patent Publication WO2018093695) concentration 600 uM in DMSO, 1 uL). 10 min after the quench, 29 uL of z-GPR-AFC substrate (Sigma, Cat #C0980-10 MG, concentration 200 uM) was added into each well and the detection reaction proceeded for 60 min at 22° C. Fluorescence at 405/510 nm was measured in end-point mode using an Envision plate-reader (Perkin Elmer). IDBS Activity Base XE (ABase) analysis using 4 parameter logistic fit was performed to determine Minimum, Maximum, EC50, and Slope Factor for each compound.

Row | EC50 | SMILES
1 | 19.5 nM | O=C(c1cc(C(=O)N2CCCCC2)c2cc(OCc3ccc4snnc4c3)ccc2n1)N1CCC(n2cccn2)CC1 [Example 7, (4-(1H-pyrazol-1-yl)piperidin-1-yl)(6-(benzo[d][1,2,3]thiadiazol-5-ylmethoxy)-4-(piperidine-1-carbonyl)quinolin-2-yl)methanone]
2 | 37.7 nM | N#CC1(c2ccccc2)CCN(C(=O)c2cc(C(=O)N3CCCCC3)c3cc(OCc4ccc(OC(F)(F)F)cc4)ccc3n2)CC1 [Example 35, 4-phenyl-1-(4-(piperidine-1-carbonyl)-6-((4-(trifluoro-methoxy)benzyl)oxy)quin-oline-2-carbonyl)piperidine-4-carbonitrile]
3 | 32.6 nM | O=C(c1cc(C(=O)N2CCCCC2)c2cc(OCc3nc4ccccc4s3)ccc2n1)N1CCC(c2ncc[nH]2)CC1 [Example 74, (4-(1H-imidazol-2-yl)-piperidin-1-yl)(6-(benzo-[d]thiazol-2-ylmethoxy)-4-(piperidine-carbonyl)-quinolin-2-yl)methanone]
4 | 48.7 nM | COc1ccc(COc2ccc3nc(C(=O)N4CCC(C#N)(c5ccccc5)CC4)cc(C(=O)N4CCCCC4)c3c2)c(C(F)(F)F)c1 [Example 42, 1-(6-((4-methoxy-2-(tri-fluoromethyl)benzyl)oxy)-4-(piperidine-1-carbonyl)quin-oline-2-carbonyl)-4-phenyl-piperidine-4-carbonitrile]
5 | 36.9 nM | N#Cc1cc(F)ccc1COc1ccc2nc(C(=O)N3CCC(C#N)(c4ccccc4)CC3)cc(C(=O)N3CCCCC3)c2c1 [Example 45, 1-(6-((2-cyano-4-fluoro-benzyl)oxy)-4-(piperidine-1-carbonyl)quinoline-2-carbon-yl)-4-phenylpiperidine-4-carbonitrile]
6 | 38.9 nM | N#CC1(c2ccccc2)CCN(C(=O)c2cc(C(=O)N3CCCCC3)c3cc(OCc4ccc(F)cc4[N+](=O)[O-])ccc3n2)CC1 [Example 28, 1-(6-((4-fluoro-2-nitro-benzyl)oxy)-4-(piperidine-1-carbonyl)quinoline-2-carbon-yl)-4-phenylpiperidine-4-carbonitrile]
7 | 44.6 nM | N#Cc1ccc(F)cc1COc1ccc2nc(C(=O)N3CCC(C#N)(c4ccccc4)CC3)cc(C(=O)N3CCCCC3)c2c1 [Example 44, 1-(6-((2-cyano-5-fluoro-benzyl)oxy)-4-(piperidine-1-carbonyl)quinoline-2-carbon-yl)-4-phenylpiperidine-4-carbonitrile]
8 | 34.3 nM | O=C(c1cc(C(=O)N2CCCCC2)c2cc(OCc3ccc(Cl)cc3)ccc2n1)N1CCC(n2cccn2)CC1 [Example 21, (4-(1H-pyrazol-1-yl)piperidin-1-yl)(6-((4-chlorobenzyl)oxy)-4-(piperidine-1-carbonyl)quin-olin-2-yl)methanone]
9 | 34.2 nM | O=C(c1cc(C(=O)N2CCCCC2)c2cc(OCc3cn4ccccc4n3)ccc2n1)N1CCC(n2cccn2)CC1 [Example 25, (4-(1H-pyrazol-1-yl)piperidin-1-yl)(6-(imidazo[1,2-a]-pyridin-2-ylmethoxy)-4-(piperidine-1-carbonyl)quin-olin-2-yl)methanone]
10 | 29.1 nM | N#CC1(c2ccccc2)CCN(C(=O)c2cc(C(=O)N3CCCCC3)c3cc(OCc4ccc(OC(F)F)cc4)ccc3n2)CC1 [Example 36, 1-(6-((4-(difluoro-l3-meth-oxy)phenyl)methoxy)-4-(piperidine-1-carbonyl)quin-oline-2-carbonyl)-4-phenyl-piperidine-4-carbonitrile]
11 | 40.2 nM | O=C(c1cc(C(=O)N2CCCCC2)c2cc(OCc3nc4ccccc4s3)ccc2n1)N1CC[C@H]2OCCC[C@@H]2C1 [Example 70]
12 | 44.6 nM | O=C(c1cc(C(=O)N2CCCCC2)c2cc(OCc3cc4ccccn4n3)ccc2n1)N1CCC(n2cccn2)CC1 [Example 22, (4-(1H-pyrazol-1-yl)piperidin-1-yl)(4-(piperidine-1-carbon-yl)-6-(pyrazolo[1,5-a]pyridin-2-ylmethoxy)quinolin-2-yl) methanone]
13 | 62.6 nM | O=C(c1cc(C(=O)N2CCCC(F)(F)C2)c2cc(OCc3nc4ccccc4s3)ccc2n1)N1CCC(n2cccn2)CC1 [Example 53, (4-(1H-pyrazol-1-yl)piperidin-1-yl)(6-(benzo[d]thiazol-2-ylmethoxy)-4-(3,3-difluoro-piperidine-1-carbonyl)quin-olin-2-yl)methanone]
14 | 33.7 nM | N#CC1(c2ccccc2)CCN(C(=O)c2cc(C(=O)N3CCCCC3)c3cc(OCCCn4cccc4)ccc3n2)CC1 [Example 46, 1-(6-(3-(1H-pyrrol-1-yl)-propoxy)-4-(piperidine-1-car-bonyl)quinoline-2-carbonyl)-4-phenylpiperidine-4-carbonitrile]
15 | 50.8 nM | Cn1ncc2cc(COc3ccc4nc(C(=O)N5CCC(n6cccn6)CC5)cc(C(=O)N5CCCCC5)c4c3)ccc21 [Example 17, (4-(1H-pyrazol-1-yl)piperidin-1-yl)(6-((1-methyl-1H-indazol-5-yl)methoxy)-4-(piperidine-1-carbonyl)quinolin-2-yl) methanone]
16 | 16.5 nM | CC(N1CCN(C(=O)c2cc(C(=O)N3CCCCC3)c3cc(OCc4nc5ccccc5s4)ccc3n2)CC1)C(F)(F)F (centres unmarked) [Example 66, (6-(benzo[d]thiazol-2-yl-methoxy)-2-(4-(1,1,1-trifluoropropan-2-yl)-piperazine-1-carbonyl)-quinolin-4-yl)(piperidin-1-yl)methanone]
17 | 36.6 nM | O=C(c1cc(C(=O)N2CCCCC2)c2cc(OCc3nc4ccccc4o3)ccc2n1)N1CCC(n2cccn2)CC1 [Example 23, (4-(1H-pyrazol-1-yl)piperidin-1-yl)(6-(benzo[d]oxazol-2-ylmethoxy)-4-(piperidine-1-carbonyl)quinolin-2-yl) methanone]
18 | 14.7 nM | O=C(c1cc(C(=O)N2CCCCC2)c2cc(OCc3ccc4nonc4c3)ccc2n1)N1CCC(n2cccn2)CC1 [Example 14, (4-(1H-pyrazol-1-yl)piperidin-1-yl)(6-(benzo[c][1,2,5]-oxadiazol-5-ylmethoxy)-4-(piperidine-1-carbonyl)-quinolin-2-yl)methanone]
19 | 32.9 nM | N#Cc1ccc(COc2ccc3nc(C(=O)N4CCC(n5cccn5)CC4)cc(C(=O)N4CCCCC4)c3c2)c(F)c1 [Example 16, 4-(((2-(4-(1H-pyrazol-1-yl)-piperidine-1-carbonyl)-4-(piperidine-1-carbonyl)-quinolin-6-yl)oxy)methyl)-3-fluorobenzonitrile]
20 | 366 nM | CN(C(=O)c1cc(C(=O)N2CCC(n3cccn3)CC2)nc2ccc(OCc3nc4ccccc4s3)cc12)C1CCC1 [Example 55, 2-(4-(1H-pyrazol-1-yl)piperi-dine-1-carbonyl)-6-(benzo[d]-thiazol-2-ylmethoxy)-N-cyclo-butyl-N-methylquinoline-4-carboxamide]
21 | 44.9 nM | N#CC1(c2ccccc2)CCN(C(=O)c2cc(C(=O)N3CCCCC3)c3cc(OCc4ccccn4)ccc3n2)CC1 [Example 48, 4-phenyl-1-(4-(piperidine-1-carbonyl)-6-(pyridin-2-yl-methoxy)quinoline-2-carbon-yl)piperidine-4-carbonitrile]
22 | 31 nM | O=C(c1cc(C(=O)N2CCCCC2)c2cc(OCc3nc4ccccc4s3)ccc2n1)N1CCC(c2cc[nH]n2)CC1 [Example 63, (4-(1H-pyrazol-3-yl)piperi-din-1-yl)(6-(benzo[d]-thiazol-2-ylmethoxy)-4-(piperidine-1-carbonyl)-quinolin-2-yl)methanone]
23 | 35.8 nM | O=C1OCc2ccc(COc3ccc4nc(C(=O)N5CCC(n6cccn6)CC5)cc(C(=O)N5CCCCC5)c4c3)cc21 [Example 20, 6-(((2-(4-(1H-pyrazol-1-yl)-piperidine-1-carbonyl)-4-(piperidine-1-carbonyl)-quinolin-6-yl)oxy)methyl)-isobenzofuran-1(3H)-one]
24 | 39.6 nM | Cc1c(COc2ccc3nc(C(=O)N4CCC(C#N)(c5ccccc5)CC4)cc(C(=O)N(C)C)c3c2)ccc2c1COC2=O [Example 3, 2-(4-cyano-4-phenylpiperidine-1-carbonyl)-N,N-dimethyl-6-((4-methyl-1-oxo-1,3-dihydroisobenzofuran-5-yl)methoxy)quinoline-4-carboxamide]
25 | 38.8 nM | Cc1c(COc2ccc3nc(C(=O)N4CCC(C)(O)C4)cc(C(=O)N4CCCCC4)c3c2)ccc2c1COC2=O (single isomer, unassigned) [Example 5b, 5-(((2-(3-hydroxy-3-methylpyrrolidine-1-carbonyl)-4-(piperidine-1-carbonyl)quinolin-6-yl)oxy)methyl)-4-methylisobenzofuran-1(3H)-one]
26 | 18.8 nM | O=C(c1cc(C(=O)N2CCCCC2)c2cc(OCCCc3cccnc3)ccc2n1)N1CCC(n2cccn2)CC1 [Example 8, (4-(1H-pyrazol-1-yl)piperidin-1-yl)(4-(piperidine-1-carbon-yl)-6-(3-(pyridin-3-yl)pro-poxy)quinolin-2-yl)methanone]
